Reference: patent publication US12310975B2, “Modulators of BCL6 proteolysis and associated methods of use” (Arvinas Operations, Inc., priority 2019, dated 2025)

Columns and labels:
BCL6 [1] = target: T1, BCL6 (Homo sapiens (Human), UniProt P41182); experiment: Immunofluorescence high content imaging of BCL6 degradation in T47D cells; assay type: cell-based; conditions: for Dmax: T47D; for DC50: class symbols A-D, read-out: EC50 (nM)*
Outline: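 T47D, 3 d compound exposure, 11-pt 3-fold series, top 0.1 or 1 μM final. Fix 4% PFA, Triton permeabilize, anti-BCL6 primary overnight 4 °C, Alexa-488 secondary. High-content imaging 10×, 4 fields/well, top-hat smoothing.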

BCL6 [2] = target: T1, BCL6; experiment: BCL6 TR-FRET assay (BCL6-Avitag-Biotin / BCoR-Cy5 peptide); assay type: binding
Outline: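 TR-FRET displacement assay: biotinylated His-SUMO-BCL6-Avitag (2 nM) pre-incubated 30 min at room temperature with compound (12-point 3-fold titration), then BCoR-Cy5 peptide (100 nM) and Eu-streptavidin (2 nM) added. Buffer: 50 mM HEPES pH 7.5, 125 mM NaCl, 0.01% Triton X, glutathione or DTT, 0.03% BSA. Read after 2 h.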

[3] = class symbols A-D, read-out: IC50 (nM)***

**Q.** What does the source list for `CNC(=O)COc1cc2cc(Nc3nc(N4CCC(CN5CCN(c6cc(OC)cc(C(=O)NC7CCC(=O)NC7=O)c6F)CC5)CC4)ncc3Cl)ccc2n(C(C)C)c1=O` (stereo not shown) [compound 466, 3-[4-({1-[5-chloro-4-({3-[(methylcarbamoyl)methoxy]-2-oxo-1-(propan-2-yl)-1,2-dihydroquinolin-6-yl}amino)pyrimidin-2-yl]piperidin-4-yl}methyl)piperazin-1-yl]-N-(2,6-dioxopiperidin-3-yl)-2-fluoro-5-methoxybenzamide]?
**A.** Dmax (BCL6 [1]): 50 to 70%; IC50 (BCL6 [2]; read-out: IC50): < 10 nM

**Q.** With `CNC(=O)COc1cc2cc(Nc3nc(N4CCN(CC5CCN(c6cccc7c6C(=O)N(C6CCC(=O)NC6=O)C7=O)CC5)CC4)ncc3Cl)ccc2n(C)c1=O` (stereo not shown) [compound 207, 2-((6-((5-chloro-2-(4-((1-(2-(2,6-dioxopiperidin-3-yl)-1,3-dioxoisoindolin-4-yl)piperidin-4-yl)methyl)piperazin-1-yl)pyrimidin-4-yl)amino)-1-methyl-2-oxo-1,2-dihydroquinolin-3-yl)oxy)-N-methylacetamide] as the molecule, how does the IC50 (BCL6 [1]) read?
**A.** < 10 nM

**Q.** And the Dmax (BCL6 [1])?
**A.** ≥ 70%

**Q.** And the EC50 (BCL6 [2])?
**A.** 10 to 50 nM

**Q.** Which Dmax (BCL6 [1]) does the source give for `CNC(=O)COc1cc2cc(Nc3nc(N4CCC(CN5CC(N6CCN(c7cccc8c7C(=O)N(C7CCC(=O)NC7=O)C8=O)CC6)C5)CC4)ncc3Cl)ccc2n(C(C)C)c1=O` (stereo not shown) [compound 499, 2-({6-[(5-chloro-2-{4-[(3-{4-[2-(2,6-dioxopiperidin-3-yl)-1,3-dioxo-2,3-dihydro-1H-isoindol-4-yl]piperazin-1-yl}azetidin-1-yl)methyl]piperidin-1-yl}pyrimidin-4-yl)amino]-2-oxo-1-(propan-2-yl)-1,2-dihydroquinolin-3-yl}oxy)-N-methylacetamide] here?
**A.** ≥ 70%

**Q.** And the IC50 (BCL6 [2]; read-out: IC50)?
**A.** < 10 nM

**Q.** How did the IC50 (BCL6 [1]) turn out when `CNC(=O)COc1cc2cc(Nc3nc(N4CCN(CC5CCN(c6cnc(C(=O)NC7CCC(=O)NC7=O)cn6)CC5)CC4)ncc3Cl)ccc2n(C)c1=O` (stereo not shown) [compound 281, 5-[4-({4-[5-chloro-4-({1-methyl-3-[(methylcarbamoyl)methoxy]-2-oxo-1,2-dihydroquinolin-6-yl}amino)pyrimidin-2-yl]piperazin-1-yl}methyl)piperidin-1-yl]-N-(2,6-dioxopiperidin-3-yl)pyrazine-2-carboxamide] was run?
**A.** < 10 nM

**Q.** What about the Dmax (BCL6 [1]) of the same molecule?
**A.** < 50%

**Q.** And the EC50 (BCL6 [2])?
**A.** 10 to 50 nM

**Q.** How did the IC50 (BCL6 [1]) turn out when `CNC(=O)COc1cc2cc(Nc3nc(N4CCO[C@@H](COc5ccc6c(c5)C(=O)N(C5CCC(=O)NC5=O)C6=O)C4)ncc3Cl)ccc2n(C)c1=O` (stereo partly drawn) [compound 222, 2-((6-((5-chloro-2-((2R)-2-(((2-(2,6-dioxopiperidin-3-yl)-1,3-dioxoisoindolin-5-yl)oxy)methyl)morpholino)pyrimidin-4-yl)amino)-1-methyl-2-oxo-1,2-dihydroquinolin-3-yl)oxy)-N-methylacetamide] was run?
**A.** 50 to 100 nM

**Q.** What about the Dmax (BCL6 [1]) of the same molecule?
**A.** < 50%

**Q.** What about the EC50 (BCL6 [2]) of the same molecule?
**A.** > 100 nM

**Q.** How did the Dmax (BCL6 [1]; maximum, class symbols A-C) turn out when `CNC(=O)COc1cc2cc(Nc3nc(N4CCC(OCCOCCOCCOCCOCCOc5ccc6c(c5)CN(C5CCC(=O)NC5=O)C6=O)CC4)ncc3Cl)ccc2n(C)c1=O` (stereo not shown) [compound 62, 2-((6-((5-chloro-2-(4-((14-((2-(2,6-dioxopiperidin-3-yl)-1-oxoisoindolin-5-yl)oxy)-3,6,9,12-tetraoxatetradecyl)oxy)piperidin-1-yl)pyrimidin-4-yl)amino)-1-methyl-2-oxo-1,2-dihydroquinolin-3-yl)oxy)-N-methylacetamide] was run?
**A.** ≥ 70%

**Q.** And the DC50 (BCL6 [1])?
**A.** > 100 nM

**Q.** And the IC50 (BCL6 [2]; [3])?
**A.** 10 to 50 nM

**Q.** Which IC50 (BCL6 [1]) does the source give for `CNC(=O)COc1cc2cc(Nc3nc(N4CCC(OC5CCN(c6ccc7c(c6)C(=O)N(C6CCC(=O)NC6=O)C7=O)CC5)CC4)ncc3Cl)ccc2n(C)c1=O` (stereo not shown) [compound 221, 2-((6-((5-chloro-2-(4-((1-(2-(2,6-dioxopiperidin-3-yl)-1,3-dioxoisoindolin-5-yl)piperidin-4-yl)oxy)piperidin-1-yl)pyrimidin-4-yl)amino)-1-methyl-2-oxo-1,2-dihydroquinolin-3-yl)oxy)-N-methylacetamide] here?
**A.** < 10 nM

**Q.** And the Dmax (BCL6 [1])?
**A.** 50 to 70%

**Q.** And the EC50 (BCL6 [2])?
**A.** > 100 nM

**Q.** For `CNC(=O)COc1cc2cc(Nc3nc(N4CCC(C(C)(C)N5CCN(c6ccc7c(c6)C(=O)N(C6CCC(=O)NC6=O)C7=O)CC5)CC4)ncc3Cl)ccc2n(C)c1=O` (stereo not shown) [compound 200, 2-((6-((5-chloro-2-(4-(2-(4-(2-(2,6-dioxopiperidin-3-yl)-1,3-dioxoisoindolin-5-yl)piperazin-1-yl)propan-2-yl)piperidin-1-yl)pyrimidin-4-yl)amino)-1-methyl-2-oxo-1,2-dihydroquinolin-3-yl)oxy)-N-methylacetamide], which IC50 (BCL6 [1]) is on record?
**A.** 10 to 50 nM

**Q.** What about the Dmax (BCL6 [1]) of the same molecule?
**A.** 50 to 70%

**Q.** What about the EC50 (BCL6 [2]) of the same molecule?
**A.** > 100 nM

**Q.** Which Dmax (BCL6 [1]; maximum, class symbols A-C) does the source give for `CC(=O)COc1cc2cc(Nc3nc(N4CCN(C5CCN(c6ccc7c(c6)C(=O)N(C6CCC(=O)NC6=O)C7=O)CC5)CC4)ncc3Cl)ccc2n(C)c1=O` (stereo not shown) [compound 160, 5-(4-(4-(5-chloro-4-((1-methyl-2-oxo-3-(2-oxopropoxy)-1,2-dihydroquinolin-6-yl)amino)pyrimidin-2-yl)piperazin-1-yl)piperidin-1-yl)-2-(2,6-dioxopiperidin-3-yl)isoindoline-1,3-dione] here?
**A.** 50 to 70%

**Q.** What about the DC50 (BCL6 [1]) of the same molecule?
**A.** 10 to 50 nM

**Q.** And the IC50 (BCL6 [2]; [3])?
**A.** 10 to 50 nM

**Q.** Which Dmax (BCL6 [1]; maximum, class symbols A-C) does the source give for `CNC(=O)COc1cc2cc(Nc3nc(N4CCC(CN5CCN(c6ccc7c(c6)CN(C6CCC(=O)NC6=O)C7=O)CC5)CC4)ncc3Cl)ccc2n(C)c1=O` (stereo not shown) [compound 151, 2-((6-((5-chloro-2-(4-((4-(2-(2,6-dioxopiperidin-3-yl)-1-oxoisoindolin-5-yl)piperazin-1-yl)methyl)piperidin-1-yl)pyrimidin-4-yl)amino)-1-methyl-2-oxo-1,2-dihydroquinolin-3-yl)oxy)-N-methylacetamide] here?
**A.** 50 to 70%

**Q.** And the DC50 (BCL6 [1])?
**A.** 10 to 50 nM

**Q.** And the IC50 (BCL6 [2]; [3])?
**A.** < 10 nM

**Q.** Which IC50 (BCL6 [1]) does the source give for `CC(=O)[C@H](C)Oc1cc2cc(Nc3nc(N4CCC(CN5CCN(c6ccc7c(c6)C(=O)N([C@H]6CCC(=O)NC6=O)C7=O)CC5)CC4)ncc3Cl)ccc2n(C)c1=O` [compound 217, 5-(4-((1-(5-chloro-4-((1-methyl-2-oxo-3-(((S)-3-oxobutan-2-yl)oxy)-1,2-dihydroquinolin-6-yl)amino)pyrimidin-2-yl)piperidin-4-yl)methyl)piperazin-1-yl)-2-((S)-2,6-dioxopiperidin-3-yl)isoindoline-1,3-dione] here?
**A.** ≥ 100 nM

**Q.** And the Dmax (BCL6 [1])?
**A.** < 50%

**Q.** And the EC50 (BCL6 [2])?
**A.** > 100 nM

**Q.** How did the Dmax (BCL6 [1]; maximum, class symbols A-C) turn out when `CNC(=O)/C=C/c1cc2cc(Nc3nc(N4CCC(CN5CCN(c6ccc7c(c6)C(=O)N(C6CCC(=O)NC6=O)C7=O)CC5)CC4)ncc3Cl)ccc2n(C)c1=O` (stereo not shown) [compound 174, (E)-3-(6-((5-chloro-2-(4-((4-(2-(2,6-dioxopiperidin-3-yl)-1,3-dioxoisoindolin-5-yl)piperazin-1-yl)methyl)piperidin-1-yl)pyrimidin-4-yl)amino)-1-methyl-2-oxo-1,2-dihydroquinolin-3-yl)-N-methylacrylamide] was run?
**A.** 50 to 70%

**Q.** What about the IC50 (BCL6 [2]; [3]) of the same molecule?
**A.** 10 to 50 nM

**Q.** `CNC(=O)COc1cc2cc(Nc3nc(N4CCC(CN5CCC6(CCN(c7ccc8c(c7)C(=O)N(C7CCC(=O)NC7=O)C8=O)C6)C5)CC4)ncc3Cl)ccc2n(C(C)C)c1=O` (stereo not shown) [compound 534, 2-{[6-({5-chloro-2-[4-({7-[2-(2,6-dioxopiperidin-3-yl)-1,3-dioxo-2,3-dihydro-1H-isoindol-5-yl]-2,7-diazaspiro[4.4]nonan-2-yl}methyl)piperidin-1-yl]pyrimidin-4-yl}amino)-2-oxo-1-(propan-2-yl)-1,2-dihydroquinolin-3-yl]oxy}-N-methylacetamide] was tested. Which Dmax (BCL6 [1]) did it give?
**A.** ≥ 70%

**Q.** And the IC50 (BCL6 [2]; read-out: IC50)?
**A.** < 10 nM

**Q.** `CC(=O)COc1cc2cc(Nc3nc(N4CCC(C(=O)N5CCN(c6ccc7c(c6)C(=O)N(C6CCC(=O)NC6=O)C7=O)CC5)CC4)ncc3Cl)ccc2n(C)c1=O` (stereo not shown) [compound 153, 5-(4-(1-(5-chloro-4-((1-methyl-2-oxo-3-(2-oxopropoxy)-1,2-dihydroquinolin-6-yl)amino)pyrimidin-2-yl)piperidine-4-carbonyl)piperazin-1-yl)-2-(2,6-dioxopiperidin-3-yl)isoindoline-1,3-dione] was tested. Which Dmax (BCL6 [1]; maximum, class symbols A-C) did it give?
**A.** ≥ 70%

**Q.** And the DC50 (BCL6 [1])?
**A.** < 10 nM

**Q.** What about the IC50 (BCL6 [2]; [3]) of the same molecule?
**A.** 50 to 100 nM

**Q.** Which results are given for `CNC(=O)COc1cc2cc(Nc3nc(N4CCC5(CCN(CC6CCN(c7ccc8c(c7)C(=O)N(C7CCC(=O)NC7=O)C8=O)CC6)CC5)CC4)ncc3Cl)ccc2n(C(C)C)c1=O` (stereo not shown) [compound 496, 2-{[6-({5-chloro-2-[9-({1-[2-(2,6-dioxopiperidin-3-yl)-1,3-dioxo-2,3-dihydro-1H-isoindol-5-yl]piperidin-4-yl}methyl)-3,9-diazaspiro[5.5]undecan-3-yl]pyrimidin-4-yl}amino)-2-oxo-1-(propan-2-yl)-1,2-dihydroquinolin-3-yl]oxy}-N-methylacetamide]?
**A.** Dmax (BCL6 [1]): 50 to 70%; IC50 (BCL6 [2]; read-out: IC50): < 10 nM

**Q.** `CNC(=O)COc1cc2cc(Nc3nc(N4CCN(CC5CCN(c6ccc(C(=O)NC7CCC(=O)NC7=O)c(F)c6)CC5)CC4)ncc3Cl)ccc2n(C)c1=O` (stereo not shown) [compound 233, 4-(4-((4-(5-chloro-4-((1-methyl-3-(2-(methylamino)-2-oxoethoxy)-2-oxo-1,2-dihydroquinolin-6-yl)amino)pyrimidin-2-yl)piperazin-1-yl)methyl)piperidin-1-yl)-N-(2,6-dioxopiperidin-3-yl)-2-fluorobenzamide] was tested. Which IC50 (BCL6 [1]) did it give?
**A.** ≥ 100 nM

**Q.** And the Dmax (BCL6 [1])?
**A.** < 50%

**Q.** What about the EC50 (BCL6 [2]) of the same molecule?
**A.** > 100 nM

**Q.** Which Dmax (BCL6 [1]; maximum, class symbols A-C) does the source give for `CC(=O)COc1cc2cc(Nc3nc(N4CCC(OCCN5CCN(c6ccc7c(c6)CN(C6CCC(=O)NC6=O)C7=O)CC5)CC4)ncc3Cl)ccc2n(C)c1=O` (stereo not shown) [compound 128, 3-(5-(4-(2-((1-(5-chloro-4-((1-methyl-2-oxo-3-(2-oxopropoxy)-1,2-dihydroquinolin-6-yl)amino)pyrimidin-2-yl)piperidin-4-yl)oxy)ethyl)piperazin-1-yl)-1-oxoisoindolin-2-yl)piperidine-2,6-dione] here?
**A.** < 50%

**Q.** And the DC50 (BCL6 [1])?
**A.** < 10 nM

**Q.** What about the IC50 (BCL6 [2]; [3]) of the same molecule?
**A.** < 10 nM
